The record followed here is article PMC8876231, “Analogues of Natural Chalcones as Efficient Inhibitors of AKR1C3” (Metabolites, 2022).

Common to all, as to type: biochemical
One experiment addresses T1, AKR1C3 (Homo sapiens, UniProt P42330).
T1 construct: GST (own knowledge: pGEX vectors encode N-terminal GST); made in house; host or cells: E. coli BL21 DE3 Codon Plus RP, lysate
T1 sequence (P42330 1-323): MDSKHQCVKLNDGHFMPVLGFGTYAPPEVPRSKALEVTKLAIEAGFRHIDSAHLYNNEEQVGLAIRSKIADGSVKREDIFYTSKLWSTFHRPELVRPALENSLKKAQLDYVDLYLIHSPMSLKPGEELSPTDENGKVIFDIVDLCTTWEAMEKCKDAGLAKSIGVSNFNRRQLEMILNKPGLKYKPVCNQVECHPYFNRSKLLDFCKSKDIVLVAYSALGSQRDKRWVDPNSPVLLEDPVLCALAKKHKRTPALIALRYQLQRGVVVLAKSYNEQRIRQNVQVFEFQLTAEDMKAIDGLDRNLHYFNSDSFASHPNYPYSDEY
The experiment is described as follows: AKR1C3 enzymatic inhibition assay (∆4-androstene-3,17-dione to testosterone). To be noted: for IC50: one-site ligand binding fit. An excerpt:
(§1) For enzymatic assays and inhibitor testing, all enzymes were cloned into bacterial or mammalian expression vectors. AKR1C3 and the human hydroxysteroid dehydrogenases HSD17B1, HSD17B2, HSD17B4 (SDR domain), HSD17B7, and HSD17B10 were cloned into a pGEX vector as described in [71, 72]. The coding sequences for AKR1C1, AKR1C2, and AKR1C4 were cloned by Gateway technology into the pcDNA3-N-MycDest vector according to the manufacturer’s instructions (Life Technologies, Carlsbad, CA, USA). The p11 plasmid coding for HSD17B14 (S205 variant) was a gift from Udo Opperman SGC Oxford, UK. For assays with HSD17B3, HEK293 cells stably expressing HSD17B3 were used. Enzymes were expressed in E. coli BL21 DE3 or E. coli BL21 DE3 Codon Plus RP (Stratagene, San Diego, CA, USA) or in HEK293 cells as described in [71, 72, 73]. Bacterial and cell pellets were stored at −20 °C and −80 °C, respectively, until use.
(§2) Inhibition assays were carried out as described in [71, 74]. […] For a detailed assay setup, see Supplementary Table S6. The incubation at 37 °C was stopped with 0.21 M ascorbic acid in methanol:acetic acid 99:1 (v:v) after the time needed to convert approximately 30% of the substrate in a control assay with 1% DMSO, without inhibitor candidate. Substrates and products were extracted from the reaction mixture by solid-phase extraction using C18 cartridges (Phenomenex, Aschaffenburg, Germany) and separated by RP–HPLC in a Beckman–Coulter HPLC Gold system, using the Luna 5 µm C18(2), 125 × 4.0 mm column (Phenomenex). The mobile phases used were H2O:ACN (57:43 (v:v); for assays of estrone (E1) to oestradiol (E2), E2 to E1, and ∆4-androstene-3,17-dione to testosterone conversion), H2O:ACN (49:51 (v:v); for assays of progesterone to 20α-hydroxyprogesterone conversion), and H2O:MeOH (35:65 (v:v) for assays of dihydrotestosterone (DHT) to 3α-androstanediol conversion) at a flow rate of 1 mL/min. Radioactivity was detected by online scintillation counting by using a radioactivity monitor (LB506D, Berthold Technologies, Bad Wildbad, Germany). Conversion of substrates to products was determined by integration of the peak area of the substrate and product peaks in percent. For calculation of inhibition, the conversion of control assay (assay without inhibitor) was set to 0% inhibition. All assays were run in triplicates, and mean values ± SD are reported.
For the determination of IC50 values, percent inhibition values were fitted using the Enzyme Kinetics module of SigmaPlot 13.0 and the one-site ligand-binding model according to the formula f = Bmax * abs(x)/(Kd + abs(x)).
(§3) Table S6: Activity assay setup […]
(§4) E1: estrone; E2: 17β-estradiol, A: Δ4-androstene-3,17-dione; T: testosterone, P: progesterone, 20αOHP: 20α-hydroxyprogesterone, DHT: dihydrotestosterone, 3α-Adiol: 3α-androstanediol, NaPi: 100 mM Na-phosphate buffer; PI: C0mplete protease inhibitor (Roche);. E.coli - Expression in E.coli BL21 DE3 Codon Plus RP except E.coli BL21 DE3 […]
(§5) application to antiparasitic and natural product synthesis. Eur J Org Chem […]
(§6) Synthesis of Xanthohumol analogues and discovery of potent thioredoxin reductase inhibitor as potential anticancer agent. J Med Chem 2015, 58,

The next experiment deals with T2, HSD17B2 (Homo sapiens, UniProt P37059).
T2 construct: GST (own knowledge: pGEX vectors encode N-terminal GST); made in house; host or cells: E. coli BL21 DE3 Codon Plus RP
T2 sequence (P37059 1-387): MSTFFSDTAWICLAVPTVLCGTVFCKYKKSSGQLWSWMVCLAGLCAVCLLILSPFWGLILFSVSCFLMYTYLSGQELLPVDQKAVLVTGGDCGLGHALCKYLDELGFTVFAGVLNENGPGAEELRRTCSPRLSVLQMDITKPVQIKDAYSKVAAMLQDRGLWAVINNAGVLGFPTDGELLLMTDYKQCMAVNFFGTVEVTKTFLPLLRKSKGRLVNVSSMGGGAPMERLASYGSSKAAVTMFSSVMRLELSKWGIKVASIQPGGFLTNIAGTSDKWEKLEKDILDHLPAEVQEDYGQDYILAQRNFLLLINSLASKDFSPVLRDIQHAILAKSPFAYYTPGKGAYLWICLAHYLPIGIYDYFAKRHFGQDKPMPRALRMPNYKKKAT
The experiment is described as follows: HSD17B2 inhibition assay (oestradiol to estrone). The following applies: 10 µM compound; mean ± SD.
Text: as §1, §2, §3, §4, §5, §6

A further experiment addresses T3, HSD17B7 (Homo sapiens, UniProt P56937).
T3 construct: GST (own knowledge: pGEX vectors encode N-terminal GST); made in house; host or cells: E. coli BL21 DE3 Codon Plus RP
T3 sequence (P56937 1-341): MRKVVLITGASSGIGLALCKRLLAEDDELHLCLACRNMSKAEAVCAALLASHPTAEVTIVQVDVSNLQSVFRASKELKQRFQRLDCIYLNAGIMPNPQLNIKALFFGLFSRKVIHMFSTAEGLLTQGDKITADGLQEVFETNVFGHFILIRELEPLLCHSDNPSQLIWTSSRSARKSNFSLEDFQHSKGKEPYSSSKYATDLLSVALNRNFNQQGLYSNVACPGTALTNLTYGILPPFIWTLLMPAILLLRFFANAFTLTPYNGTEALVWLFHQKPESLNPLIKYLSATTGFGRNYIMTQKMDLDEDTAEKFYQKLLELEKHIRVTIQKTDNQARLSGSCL
The experiment in a line: HSD17B7 inhibition assay (estrone to oestradiol). To be noted: 10 µM compound; mean ± SD.
Text: as §1, §2, §3, §4, §5, §6

The mark [1] stands for this setting: 10 µM compound, ∆4-androstene-3,17-dione reduction, triplicates, mean ± SD, 10 µM.
The mark [2] stands for this setting: ∆4-androstene-3,17-dione reduction, mean ± SD.
Where [3] appears, read: 10 µM compound, ∆4-androstene-3,17-dione reduction, triplicates, mean ± SD.

SMILES strings stand for the structures. “And” between values parts separate entries of the source, which are not always exact repeats. Equal entries are not always repeated. Where only a bound is given, the exact number is not on record here.

As to `COc1ccc(/C=C/C(=O)c2c(O)cc(O)cc2OC)cc1` [Compound 18], the “AKR1C3 Inhibition at 10 µM [%]” value on AKR1C3 (setting [1]) stood at 47.3 ± 6.4%. This compound gave an IC50 on AKR1C3 (setting [2]) of 11900 ± 2030 nM. The “Inhibition of HSD17B2 at 10 µM in %” value at HSD17B2 is 10.4 ± 1.6%. Also, at HSD17B7, the “Inhibition of HSD17B7 at 10 µM in %” value was 6.5 ± 6.7%.
For the compound `COc1ccc(/C=C/C(=O)c2c(O)cc(O)cc2O)cc1` [Compound 19], the “AKR1C3 Inhibition at 10 µM [%]” value on AKR1C3 (setting [1]) is > 75% and 78.1 ± 2.7%. Also, the half-maximal inhibitory concentration (IC50) on AKR1C3 (setting [2]) was 2360 ± 540 nM. The “Inhibition of HSD17B2 at 10 µM in %” value on HSD17B2 is recorded as 29.6 ± 3.7%. At HSD17B7, the “Inhibition of HSD17B7 at 10 µM in %” value stood at 4.6 ± 4.4%.
Regarding `Cc1cccc(/C=C/C(=O)c2c(O)cc(O)cc2O)c1` [Compound 20], the “AKR1C3 Inhibition at 10 µM [%]” value on AKR1C3 (setting [1]) is > 75% and 89.2 ± 6.3%. Also, the IC50 on AKR1C3 (setting [2]) came to 1940 ± 320 nM. Besides, the “Inhibition of HSD17B2 at 10 µM in %” value on HSD17B2 is given as 61.0 ± 0.9%. In addition, the “Inhibition of HSD17B7 at 10 µM in %” value at HSD17B7 amounted to 3.8 ± 3.5%.
`Cc1ccc(/C=C/C(=O)c2c(O)cc(O)cc2O)cc1` [Compound 21]: on AKR1C3 (setting [1]), the “AKR1C3 Inhibition at 10 µM [%]” value was > 75% and 87.9 ± 4.9%. Further, the 50% inhibitory concentration (IC50) at AKR1C3 (setting [2]) was 5180 ± 1640 nM. Besides, the “Inhibition of HSD17B2 at 10 µM in %” value at HSD17B2 worked out at 44.2 ± 4.7%. For the same compound, at HSD17B7, the “Inhibition of HSD17B7 at 10 µM in %” value was determined as 6.8 ± 4.7%.
In the case of `O=C(/C=C/c1ccc(Cl)cc1Cl)c1c(O)cc(O)cc1O` [Compound 23, 2,4-dichloro-2′,4′,6′-trihydroxychalcone], the inhibition at 10 µM worked out at 90.9 ± 4.6% at AKR1C3 (setting [3]), 88.8% against HSD17B2 and 9.9 ± 4.7% on HSD17B7. Besides, on AKR1C3 (compared with chalcone 18), the “Fold more active than natural chalcone 18 (AKR1C3)” value was determined as 10 fold. Besides, the IC50 on AKR1C3 (setting [2]) was 1080 ± 270 nM.
On to `COc1cc(O)cc(O)c1C(=O)/C=C/c1ccc(Cl)cc1Cl` [Compound 25], for which the “AKR1C3 Inhibition at 10 µM [%]” value at AKR1C3 (setting [3]) is given as 33.3 ± 6.0%. In addition, the “Inhibition of HSD17B2 at 10 µM in %” value on HSD17B2 was 12.7 ± 2.3%. Further, the “Inhibition of HSD17B7 at 10 µM in %” value at HSD17B7 worked out at 37.7 ± 11.4%.
